# Results taken from article PMC10290117, “Molecular mechanism of phosphopeptide neoantigen immunogenicity” (Nature Communications, 2023).
# Test system: TCR27-AKD10R3 cells
# Assay: X-scan (peptide scan), EGFP reporter effector cells
# Format: cell-based, murine
# Conditions: Fig. 1c source data, HLA B*07, T2 cells pulsed with 25 μg peptide per 1 × 10^6 cells, 2 h, 37 °C, effector cells 2:1 overnight, mean value of triplicate
# Procedure: Tap-deficient T2 (174x CEM.T2) HLA-B*0702+ cells were received from Dr. Victor Engelhard. These and the commercially purchased Tap-deficient T2 (174 x CEM.T2) cells (ATCC CRL 1991) were maintained in RPMI 1640 (BioConcept) supplemented with 10% fetal calf serum (FCS, HyClone), 2mM L-glutamine and 1% Penicillin/Streptomycin at 37 °C and 5% CO2. The EGFP reporter cell line was based on a murine TCR negative thymoma cell line derived from strain BW5417 (ATCC®TIB-47TM) and was stably transduced with (a) TCR27 in which the human constant regions were replaced with those of mouse, (b) a chimeric mouse/human CD8, and (c) an EGFP reporter construct linked to a minimal IL-2 promoter comprising three NFAT-binding sites (3xNFAT)[44]. The transduced cells were termed TCR27-AKD10R3 cells and will be called the effector cells. Mouse cell lines were cultured in SF-IMDM (BioConcept) supplemented with 3% FCS, 1% Penicillin/Streptomycin, and 50 μM beta-mercaptoethanol at 37 °C and 10% CO2.
# Peptides were dissolved in dimethyl sulfoxide (DMSO) at concentrations of 2–20 mg/mL, aliquoted and stored at −80 °C. Peptide-pulsing experiments were performed by pre-incubating T2 cells with 25 μg peptide per 1 × 10^6 cells in PBS for 2 h at 37 °C and 5% CO2, washed three times to remove unbound peptides and used for further downstream analysis. Peptide-pulsed T2 cells were incubated with effector cells in a 2:1 ratio overnight in SF-IMDM at 37 °C and 10% CO2, washed twice and stained with anti-mouse TCR-® chain clone H57-597 (BD Pharmingen #560656, 1:500) for 30 min at RT. Cells were washed twice before FACS-analysis using a BD FACS Canto II with System software v2.0. Data analysis was performed using FlowJo V10 Software. Binding affinity between each peptide and HLA-B*0702 was determined using an Alpha assay. It is a homogenous, proximity-based assay for detection of peptides binding to HLA class I molecules using a conformation-dependent anti-HLA class I antibody, W6/32, as one tag and a biotinylated recombinant HLA class I molecule as the other tag, and a proximity-based signal was generated through the luminescent oxygen channeling immunoassay technology (PerkinElmer) as described.
# To identify the off-target peptides we have utilized an approach that was developed previously. In brief, we investigated which amino acids at each position in pMLL747–755 enable TCR interaction by sequentially replacing every amino acid position outside of the anchor positions 2 and 9 with all 19 alternative amino acids, resulting in 134 peptides (133 altered peptides plus original epitope). Each peptide was individually evaluated using cell-based in vitro cytotoxicity assay. To represent the TCR recognition kernel, we have defined Position Weight Matrices (PWMs) for each assay by assigning normalized measurements to each of the 20 amino acids in each position. To predict potential off-target peptides, we applied an algorithm projecting the PWM-defined kernel into the human proteome, scoring TCR27 recognition for the predicted HLA-B^*0702 binding 9-mer peptides. Of the 11 peptides with highest predicted cross-reactivity scores, we confirmed that only 2, […] and pDOT1L998–1006, strongly activated the TCR27-expressing effector T cells.
row,Substance,Percentage GFP positive from TCR+ cells
1,"EPRsPPHSM [single-residue substitution of pMLL747–755, Pos 6]",0.96%
2,"EPRsPQHSM [single-residue substitution of pMLL747–755, Pos 6]",0.89%
3,"EPRsPRHSM [single-residue substitution of pMLL747–755, Pos 6]",0.98%
4,"EPRsPSASM [single-residue substitution of pMLL747–755, Pos 7]",0.88%
5,"EPRsPSCSM [single-residue substitution of pMLL747–755, Pos 7]",0.97%
6,"EPRsPSDSM [single-residue substitution of pMLL747–755, Pos 7]",0.72%
7,"EPRsPSESM [single-residue substitution of pMLL747–755, Pos 7]",1.15%
8,"EPRsPSFSM [single-residue substitution of pMLL747–755, Pos 7]",0.97%
9,"EPRsPSGSM [single-residue substitution of pMLL747–755, Pos 7]",0.85%
10,"EPRsPSHAM [single-residue substitution of pMLL747–755, Pos 8]",8.72%
11,"EPRsPSHCM [single-residue substitution of pMLL747–755, Pos 8]",4.53%
12,"EPRsPSHDM [single-residue substitution of pMLL747–755, Pos 8]",5.87%
13,"EPRsPSHEM [single-residue substitution of pMLL747–755, Pos 8]",8.26%
14,"EPRsPSHFM [single-residue substitution of pMLL747–755, Pos 8]",1.28%
15,"EPRsPSHGM [single-residue substitution of pMLL747–755, Pos 8]",1.39%
16,"EPRsPSHHM [single-residue substitution of pMLL747–755, Pos 8]",3.9%
17,"EPRsPSHIM [single-residue substitution of pMLL747–755, Pos 8]",3.8%
18,"EPRsPSHKM [single-residue substitution of pMLL747–755, Pos 8]",2.14%
19,"EPRsPSHLM [single-residue substitution of pMLL747–755, Pos 8]",6.68%
20,"EPRsPSHMM [single-residue substitution of pMLL747–755, Pos 8]",5.43%

row,Substance,Percentage GFP positive from TCR+ cells
1,"EPRsPSHNM [single-residue substitution of pMLL747–755, Pos 8]",2.91%
2,"EPRsPSHPM [single-residue substitution of pMLL747–755, Pos 8]",2.91%
3,"EPRsPSHQM [single-residue substitution of pMLL747–755, Pos 8]",2.83%
4,"EPRsPSHRM [single-residue substitution of pMLL747–755, Pos 8]",1.29%
5,"EPRsPSHTM [single-residue substitution of pMLL747–755, Pos 8]",1.97%
6,"EPRsPSHVM [single-residue substitution of pMLL747–755, Pos 8]",3.82%
7,"EPRsPSHWM [single-residue substitution of pMLL747–755, Pos 8]",0.87%
8,"EPRsPSHYM [single-residue substitution of pMLL747–755, Pos 8]",1.1%
9,"EPRsPSISM [single-residue substitution of pMLL747–755, Pos 7]",1.77%
10,"EPRsPSKSM [single-residue substitution of pMLL747–755, Pos 7]",0.69%
11,"EPRsPSLSM [single-residue substitution of pMLL747–755, Pos 7]",0.77%
12,"EPRsPSMSM [single-residue substitution of pMLL747–755, Pos 7]",1.05%
13,"EPRsPSNSM [single-residue substitution of pMLL747–755, Pos 7]",1.24%
14,"EPRsPSPSM [single-residue substitution of pMLL747–755, Pos 7]",0.81%
15,"EPRsPSQSM [single-residue substitution of pMLL747–755, Pos 7]",2.94%
16,"EPRsPSRSM [single-residue substitution of pMLL747–755, Pos 7]",1.16%
17,"EPRsPSSSM [single-residue substitution of pMLL747–755, Pos 7]",1.6%
18,"EPRsPSTSM [single-residue substitution of pMLL747–755, Pos 7]",3.23%
19,"EPRsPSVSM [single-residue substitution of pMLL747–755, Pos 7]",2.51%
20,"EPRsPSWSM [single-residue substitution of pMLL747–755, Pos 7]",1.19%

row,Substance,Percentage GFP positive from TCR+ cells
1,"EPRsPSYSM [single-residue substitution of pMLL747–755, Pos 7]",2.33%
2,"EPRsPTHSM [single-residue substitution of pMLL747–755, Pos 6]",1.88%
3,"EPRsPVHSM [single-residue substitution of pMLL747–755, Pos 6]",0.85%
4,"EPRsPWHSM [single-residue substitution of pMLL747–755, Pos 6]",0.66%
5,"EPRsPYHSM [single-residue substitution of pMLL747–755, Pos 6]",0.75%
6,"EPRsQSHSM [single-residue substitution of pMLL747–755, Pos 5]",0.72%
7,"EPRsRSHSM [single-residue substitution of pMLL747–755, Pos 5]",0.73%
8,"EPRsSSHSM [single-residue substitution of pMLL747–755, Pos 5]",0.79%
9,"EPRsTSHSM [single-residue substitution of pMLL747–755, Pos 5]",0.78%
10,"EPRsVSHSM [single-residue substitution of pMLL747–755, Pos 5]",0.96%
11,"EPRsWSHSM [single-residue substitution of pMLL747–755, Pos 5]",1.08%
12,"EPRsYSHSM [single-residue substitution of pMLL747–755, Pos 5]",1%
13,"EPSsPSHSM [single-residue substitution of pMLL747–755, Pos 3]",2.7%
14,"EPTsPSHSM [single-residue substitution of pMLL747–755, Pos 3]",1.16%
15,"EPVsPSHSM [single-residue substitution of pMLL747–755, Pos 3]",2.11%
16,"EPWsPSHSM [single-residue substitution of pMLL747–755, Pos 3]",0.92%
17,"EPYsPSHSM [single-residue substitution of pMLL747–755, Pos 3]",1.08%
18,"FPRsPSHSM [single-residue substitution of pMLL747–755, Pos 1]",1.43%
19,"GPRsPSHSM [single-residue substitution of pMLL747–755, Pos 1]",1.59%
